Source: patent US20230117034A1, “PYRAZOLOTRIAZINES” (Bayer Aktiengesellschaft, priority 2019, published 2023)

What was measured:
[1] = target: CDK12/CycK (Homo sapiens, UniProt Q9NYV4); experiment: CDK12/CycK high ATP kinase assay (TR-FRET, 2 mM ATP); assay type: biochemical; conditions: 2 mM ATP (high ATP); median; read-out: CDK12/CyclinK, 2 mM ATP (high ATP), IC50-[mol/l] (median)
Protocol: In the context of the present invention, the term “IC50 CDK12 hATP” refers to the IC50 values obtained according to the assay described in this section (2.2) herein below, i.e. the IC50 values for the inhibition of CDK12 at high (2 mM) ATP.
CDK12/CycK-inhibitory activity of compounds of the present invention at 2 millimol/L adenosine-tri-phosphate (ATP) was quantified employing the TR-FRET (TR-FRET=Time Resolved Fluorescence Energy Transfer) based CDK12/CycK activity inhibition assay as described in the following paragraphs.
A complex of human recombinant CDK12 and human recombinant CycK (both N-terminally His-tagged, expression and purification as described above) was used as enzyme. As substrate for the kinase reaction biotinylated peptide biotin-Ahx-KFELLPTPPLSPSRRSGL (C-terminus in amid form) was used which can be purchased e.g. form the company Biosyntan (Berlin-Buch, Germany).
For the assay 50 nanoL of a 100 fold concentrated solution of the test compound in DMSO was pipetted into either a black low volume 384 well microtiter plate or a black 1536 well microtiter plate (both Greiner Bio-One, Frickenhausen, Germany), 2 microL of a solution of CDK12/CycK in aqueous assay buffer [25 millimol/L HEPES pH 7.5, 20 millimol/L MgCl2, 5 millimol/L β-glycerophosphate, 2 millimol/L EGTA, 1.0 millimol/L dithiothreitol, 0.01% (v/v) Nonidet-P40 (Sigma), 0.01% (w/v) bovine serum albumin] were added and the mixture was incubated for 15 min at 22° C. to allow pre-binding of the test compounds to the enzyme before the start of the kinase reaction. Then the kinase reaction was started by the addition of 3 microL of a solution ATP (3.33 millimol/L=>final conc. in the 5 microL assay volume is 2 millimol/L) and substrate (1.67 micromol/L=>final conc. in the 5 microL assay volume is 1 micromol/L) in assay buffer and the resulting mixture was incubated for a reaction time of 60 min at 22° C. The concentration of CDK12/CycK was adjusted depending of the activity of the enzyme lot and was chosen appropriate to have the assay in the linear range, typical concentrations were about 0.75 nanomol/L. The reaction was stopped by the addition of 3 microL of a solution of TR-FRET detection reagents (125 nanomol/L streptavidine-XL665 [Cisbio Bioassays, Codolet, France] and 0.67 nanomol/L anti-Phospho-c-Myc (Ser 62) (E1J4K)-antibody from Cell Signalling [#13748] and 2 nanomol/L LANCE EU-W1024 labeled anti-rabbit IgG antibody [Perkin-Elmer, product no. 0083]) in an aqueous EDTA-solution (133 millimol/L EDTA, 0.27% (w/v) bovine serum albumin in 66.7 millimol/L HEPES pH 7.5).
The resulting mixture was incubated 1 h at 22° C. to allow the formation of complex between the phosphorylated biotinylated peptide and the detection reagents. Subsequently the amount of phosphorylated substrate was evaluated by measurement of the resonance energy transfer from the Eu-chelate to the streptavidine-XL. Therefore, the fluorescence emissions at 620 nm and 665 nm after excitation at 350 nm was measured in a TR-FRET reader, e.g. a Pherastar FS (BMG Labtechnologies, Offenburg, Germany) or a Viewlux (Perkin-Elmer). The ratio of the emissions at 665 nm and at […] was taken as the measure for the amount of phosphorylated substrate. The data were normalised (enzyme reaction without inhibitor=0% inhibition, all other assay components but no enzyme=100% inhibition).

[2] = test system: BRCA1 mRNA expression in MDA-MB-231 cells; experiment: qRT-PCR assay: BRCA1 mRNA expression in MDA-MB-231; assay type: cell-based, human; conditions: Homo sapiens, MDA-MB-231, Inhibition of BRCA1 mRNA expression in MDA-MB-231 cells; median; read-out: RTqPCR-MDA-MB-231, IC50, BRCA1 (median)
Protocol: 3. qRT-PCR Assay: BRCA, ATR, MCL1 in MDA-MB-231, CAL-120
Tissue cultured human MDA-MB-231 human breast cancer cells were plated in 500 microL per well at 200,000 cells/well in a 24 well microtiter plate. After 24 h, the cells were exposed continuously for 24 h to test substances (substances were added with Tecan HP 0300 Dispenser). RNA was prepared using Qiagen RNeasy MiniKit (#74106), RNA was quantified using a NanoDrop Equipment, and 600 nano gamms of RNA was coverted to cDNA using a SuperScript VILO kit (Thermofisher #11755050) followed by qPCR amplification. BRCA1 and ATR gene expression was measured by RT-qPCR and normalised to GAPDH housekeeping gene expression. qPCR primer sets have been purchased from Thermo Fisher Scientific/Applied Biosystems: BRCA1, #Hs 01556193; ATR, #Hs 00992123; GAPDH, #Hs 03929097.

[3] = target: T1, CYCLIN K (nuclear staining in CAL-120 cells) (Homo sapiens, UniProt O75909); experiment: CYCLIN K nuclear protein level: immunofluorescence high content analysis (CAL-120); assay type: cell-based; conditions: 24 h, 50% reduction of nuclear CCNK staining intensity, median, read-out: CYCLIN K degradation IF, DC50-[mol/l] (median)
T1 construct: endogenous in cells; host or cells: CAL-120 human breast cancer cells (DSMZ ACC 459)
Protocol: 8. CYCLIN K nuclear protein level: immunofluorescence High Content Analysis
CAL-120 human breast cancer cells (DSMZ ACC 459) are seeded in 1536-well microtiter plates (800 cells per well) containing 50 nanoL of compounds in Dose-Response. Control wells received DMSO or Example 4. Plates are then incubated for 24 h at 37° C. in an humidified incubator and fixed with 4% PFA for 10 min. Then immunofluorescence (IF) against CYCLIN K (ThermoFisher Scientific CONK Antibody #PA5-85020, rabbit, 1:200 dilution) is performed using standard IF protocols. Cells are then stained with Hoechst 33342 (Life Technologies, H-1399, 0.1 microg/ml) and imaged on an automated confocal microscopy system (e.g. Perkin Elmer Opera Phenix). Nuclear and cytoplasmic intensity as well as the nuclear/cytoplasmic intensity ratio is determined by automated image analysis using custom generated scripts (MetaXpress). Data is then transferred to Genedata Screener software, normalized to DMSO and control and DC50 values (degrading concentration to achieve 50% reduction of nuclear CCNK staining intensity relative to controls) are reported.

Sequence of CDK12/CycK (Q9NYV4 with tags, fused parts or gaps): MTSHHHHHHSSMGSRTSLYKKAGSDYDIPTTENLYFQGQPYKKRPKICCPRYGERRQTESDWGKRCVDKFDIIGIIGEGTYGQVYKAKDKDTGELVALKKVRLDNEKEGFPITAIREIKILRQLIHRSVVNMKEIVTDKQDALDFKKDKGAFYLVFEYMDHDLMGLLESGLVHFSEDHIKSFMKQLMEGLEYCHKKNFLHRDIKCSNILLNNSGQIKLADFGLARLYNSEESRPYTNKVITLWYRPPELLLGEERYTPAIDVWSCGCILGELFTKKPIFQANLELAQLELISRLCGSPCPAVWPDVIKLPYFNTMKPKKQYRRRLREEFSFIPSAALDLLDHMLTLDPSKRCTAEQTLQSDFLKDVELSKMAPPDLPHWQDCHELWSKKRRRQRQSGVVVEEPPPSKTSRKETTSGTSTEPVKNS
Sequence of CDK12/CycK (O75909 1-300 partner limits assumed): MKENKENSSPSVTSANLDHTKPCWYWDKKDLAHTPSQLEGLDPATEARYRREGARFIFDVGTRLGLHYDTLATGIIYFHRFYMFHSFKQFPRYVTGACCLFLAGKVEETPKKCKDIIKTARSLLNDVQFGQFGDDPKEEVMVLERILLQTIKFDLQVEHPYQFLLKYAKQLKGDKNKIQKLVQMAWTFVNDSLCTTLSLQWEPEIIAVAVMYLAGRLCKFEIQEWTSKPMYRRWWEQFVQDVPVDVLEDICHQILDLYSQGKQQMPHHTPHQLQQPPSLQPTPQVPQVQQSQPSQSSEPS
T1 sequence (O75909 whole entry): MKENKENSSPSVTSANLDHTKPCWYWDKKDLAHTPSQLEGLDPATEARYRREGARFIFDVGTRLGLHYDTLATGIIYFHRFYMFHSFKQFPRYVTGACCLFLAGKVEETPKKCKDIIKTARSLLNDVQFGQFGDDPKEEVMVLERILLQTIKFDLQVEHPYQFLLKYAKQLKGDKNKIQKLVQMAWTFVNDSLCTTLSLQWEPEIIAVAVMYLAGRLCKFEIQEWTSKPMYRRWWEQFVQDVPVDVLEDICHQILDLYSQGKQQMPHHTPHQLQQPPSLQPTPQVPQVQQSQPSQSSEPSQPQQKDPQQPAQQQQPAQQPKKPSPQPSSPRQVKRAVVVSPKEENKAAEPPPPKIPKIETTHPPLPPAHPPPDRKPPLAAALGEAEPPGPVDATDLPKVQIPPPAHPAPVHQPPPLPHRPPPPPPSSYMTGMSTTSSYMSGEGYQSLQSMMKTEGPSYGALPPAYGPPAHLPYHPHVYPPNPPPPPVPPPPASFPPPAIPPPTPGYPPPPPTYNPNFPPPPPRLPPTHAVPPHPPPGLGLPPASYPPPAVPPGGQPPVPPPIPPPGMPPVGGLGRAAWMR
T1 sequence (Q9NYV4 whole entry partner): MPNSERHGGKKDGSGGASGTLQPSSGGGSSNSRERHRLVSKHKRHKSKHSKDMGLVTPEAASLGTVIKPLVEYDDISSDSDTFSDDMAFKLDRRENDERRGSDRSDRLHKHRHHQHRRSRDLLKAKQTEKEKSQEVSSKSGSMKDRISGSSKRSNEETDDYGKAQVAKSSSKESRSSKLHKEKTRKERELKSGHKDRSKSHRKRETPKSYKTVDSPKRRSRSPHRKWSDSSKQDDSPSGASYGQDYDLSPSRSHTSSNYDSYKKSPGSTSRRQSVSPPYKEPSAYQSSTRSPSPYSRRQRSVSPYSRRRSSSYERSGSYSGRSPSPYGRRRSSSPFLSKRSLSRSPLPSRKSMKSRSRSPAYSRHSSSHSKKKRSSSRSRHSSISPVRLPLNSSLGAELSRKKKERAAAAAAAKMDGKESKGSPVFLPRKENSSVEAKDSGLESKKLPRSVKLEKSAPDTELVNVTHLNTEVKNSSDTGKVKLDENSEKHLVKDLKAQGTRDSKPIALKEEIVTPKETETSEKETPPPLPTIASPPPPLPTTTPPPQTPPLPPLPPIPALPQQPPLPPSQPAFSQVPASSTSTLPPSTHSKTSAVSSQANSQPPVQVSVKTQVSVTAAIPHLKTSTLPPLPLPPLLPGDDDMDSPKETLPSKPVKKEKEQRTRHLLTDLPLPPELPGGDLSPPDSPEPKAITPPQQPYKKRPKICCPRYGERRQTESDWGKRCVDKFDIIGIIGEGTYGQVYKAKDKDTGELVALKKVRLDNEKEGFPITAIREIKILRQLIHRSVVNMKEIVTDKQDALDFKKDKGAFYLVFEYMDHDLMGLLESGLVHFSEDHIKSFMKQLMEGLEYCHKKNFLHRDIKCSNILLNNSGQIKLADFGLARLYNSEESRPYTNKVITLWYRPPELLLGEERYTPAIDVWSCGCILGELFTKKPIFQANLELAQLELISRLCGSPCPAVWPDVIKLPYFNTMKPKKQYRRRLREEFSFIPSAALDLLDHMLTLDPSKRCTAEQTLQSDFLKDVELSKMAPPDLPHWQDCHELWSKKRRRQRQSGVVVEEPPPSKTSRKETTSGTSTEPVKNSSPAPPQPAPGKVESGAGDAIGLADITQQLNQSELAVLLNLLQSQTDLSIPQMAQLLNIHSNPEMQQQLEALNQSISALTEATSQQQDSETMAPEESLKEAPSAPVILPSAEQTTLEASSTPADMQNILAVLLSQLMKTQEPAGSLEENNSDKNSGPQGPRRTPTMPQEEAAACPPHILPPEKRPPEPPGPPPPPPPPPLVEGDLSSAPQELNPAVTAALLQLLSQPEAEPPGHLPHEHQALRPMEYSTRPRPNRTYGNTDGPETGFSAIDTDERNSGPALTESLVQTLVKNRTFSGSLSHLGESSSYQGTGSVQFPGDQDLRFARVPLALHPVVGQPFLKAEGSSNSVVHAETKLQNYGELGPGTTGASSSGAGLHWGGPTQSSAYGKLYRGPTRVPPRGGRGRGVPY

| Compound | IC50 [1] [nM] | IC50 [2] [nM] | DC50 [3] [nM] |
| --- | --- | --- | --- |
| CN1CCN(c2nc(NCc3nc4c(F)cccc4[nH]3)n3ncc(C4CC4)c3n2)CC1 [Example 165, 8-cyclopropyl-N-[(4-fluoro-1H-benzimidazol-2-yl)methyl]-2-(4-methylpiperazin-1-yl)pyrazolo[1,5-a][1,3,5]triazin-4-amine] | 10200 | 2.35 | 0.155 |
| Fc1cccc(-c2nnc(CNc3nc(N4CCNCC4)nc4c(Br)cnn34)[nH]2)c1 [Example 152, 8-bromo-N-{[5-(3-fluorophenyl)-4H-1,2,4-triazol-3-yl]methyl}-2-(piperazin-1-yl)pyrazolo[1,5-a][1,3,5]triazin-4-amine] | 2990 | 4.25 | 1.11 |
| C[C@H]1CCCCN1c1nc(NCc2nc3ccccc3[nH]2)n2ncc(Br)c2n1 [Example 141, N-[(1H-benzimidazol-2-yl)methyl]-8-bromo-2-[(2S)-2-methylpiperidin-1-yl]pyrazolo[1,5-a][1,3,5]triazin-4-amine] | 1310 | 16.4 | 1.74 |
| Brc1cnn2c(NCc3nnc(-c4ccccc4)[nH]3)nc(N3C[C@H]4C[C@@H]3CO4)nc12 [Example 118, 8-bromo-2-[(1R,4R)-2-oxa-5-azabicyclo[2.2.1]heptan-5-yl]-N-[(5-phenyl-4H-1,2,4-triazol-3-yl)methyl]pyrazolo[1,5-a][1,3,5]triazin-4-amine] | 5700 | 26.1 | 2.98 |
| C[C@@H]1CN(c2nc(NCc3nnc(-c4ccccc4)[nH]3)n3ncc(Br)c3n2)C[C@H](C)N1C [Example 125, 8-bromo-N-[(5-phenyl-4H-1,2,4-triazol-3-yl)methyl]-2-[(3R,5S)-3,4,5-trimethylpiperazin-1-yl]pyrazolo[1,5-a][1,3,5]triazin-4-amine] | 10900 | 61.1 | 1.2 |
| C[C@@H]1CN(c2nc(NCc3nc4ccccc4[nH]3)n3ncc(Br)c3n2)CCN1C [Example 135, N-[(1H-benzimidazol-2-yl)methyl]-8-bromo-2-[(3R)-3,4-dimethylpiperazin-1-yl]pyrazolo[1,5-a][1,3,5]triazin-4-amine] | 14500 | 30 | 0.554 |
| Brc1cnn2c(NCc3nc4ccccc4[nH]3)nc(N3C[C@H]4C[C@@H]3CO4)nc12 [Example 102, N-[(1H-benzimidazol-2-yl)methyl]-8-bromo-2-[(1R,4R)-2-oxa-5-azabicyclo[2.2.1]heptan-5-yl]pyrazolo[1,5-a][1,3,5]triazin-4-amine] | 6920 | 29.6 | 0.517 |
| Brc1cnn2c(NCc3nc4ccccc4[nH]3)nc(N3CCN4CCC[C@H]4C3)nc12 [Example 148, N-[(1H-benzimidazol-2-yl)methyl]-8-bromo-2-[(8aS)-hexahydropyrrolo[1,2-a]pyrazin-2 (1 H)-yl]pyrazolo[1,5-a][1,3,5]triazin-4-amine] | 10800 | 87.6 | 8.06 |

Second part, the compound after the results:

| IC50 [1] [nM] | IC50 [2] [nM] | DC50 [3] [nM] | Compound |
| --- | --- | --- | --- |
| 10900 | 14.6 | 0.216 | Brc1cnn2c(NCc3nc4ccccc4[nH]3)nc(N3CCNCC3)nc12 [Example 128, N-[(1H-benzimidazol-2-yl)methyl]-8-bromo-2-(piperazin-1-yl)pyrazolo[1,5-a][1,3,5]triazin-4-amine] |
| 4650 | 29.4 | 10.7 | Clc1ccccc1-c1cnc(CNc2nc(N3CCOCC3)nc3c(Br)cnn23)[nH]1 [Example 96, 8-bromo-N-{[5-(2-chlorophenyl)-1H-imidazol-2-yl]methyl}-2-(morpholin-4-yl)pyrazolo[1,5-a][1,3,5]triazin-4-amine] |
| > 19800 | 93.7 | 26.9 | CC(C)c1cnn2c(NCc3nc4ccccc4[nH]3)nc(N3CCCOCC3)nc12 [Example 8, N-[(1H-benzimidazol-2-yl)methyl]-2-(1,4-oxazepan-4-yl)-8-(propan-2-yl)pyrazolo[1,5-a][1,3,5]triazin-4-amine] |
| > 17700 | 5.5 | 0.172 | CN1CCN(c2nc(NCc3nc4cc(F)ccc4[nH]3)n3ncc(Br)c3n2)CC1 [Example 134, 8-bromo-N-[(5-fluoro-1H-benzimidazol-2-yl)methyl]-2-(4-methylpiperazin-1-yl)pyrazolo[1,5-a][1,3,5]triazin-4-amine] |
| > 5710 | 1.03 | 0.279 | CN1CCN(c2nc(NCc3nc4cc(Cl)ccc4[nH]3)n3ncc(Br)c3n2)CC1 [Example 163, 8-bromo-N-[(5-chloro-1H-benzimidazol-2-yl)methyl]-2-(4-methylpiperazin-1-yl)pyrazolo[1,5-a][1,3,5]triazin-4-amine] |
| 1240 | 62.2 | 7.4 | Fc1cc(-c2nnc(CNc3nc(N4CCOCC4)nc4c(Br)cnn34)[nH]2)cc(F)c1F [Example 100, 8-bromo-2-(morpholin-4-yl)-N-{[5-(3,4,5-trifluorophenyl)-4H-1,2,4-triazol-3-yl]methyl}pyrazolo[1,5-a][1,3,5]triazin-4-amine] |
| 6830 | 10.1 | 0.142 | CN1CCN(c2nc(NCc3nc4c(F)cccc4[nH]3)n3ncc(Br)c3n2)CC1 [Example 126, 8-bromo-N-[(4-fluoro-1H-benzimidazol-2-yl)methyl]-2-(4-methylpiperazin-1-yl)pyrazolo[1,5-a][1,3,5]triazin-4-amine] |
| 2250 | 3.14 | 0.892 | Fc1ccc2[nH]c(CNc3nc(N4CCOCC4)nc4c(Br)cnn34)nc2c1 [Example 101, 8-bromo-N-[(5-fluoro-1H-benzimidazol-2-yl)methyl]-2-(morpholin-4-yl)pyrazolo[1,5-a][1,3,5]triazin-4-amine] |
